{"source": "patent US20260176232A1", "about": "“PROBENECID COMPOUNDS FOR THE TREATMENT OF INFLAMMASOME-MEDIATED DERMATOLOGICAL CONDITIONS” (Bacainn Biotherapeutics, Ltd., priority 2022, published 2026)", "key": {"[1]": {"test_system": "NLRP1-mediated inflammasome activity", "assay": "IC50 curve, L18-MDP-induced IL-1β secretion in LPS-primed immortalized BMDMs", "assay_type": "cell-based, murine", "details": "L18-MDP 100 μg/mL; drug 3.9-350 μM; FIG. 4B; read-out: half maximal inhibitory concentration (IC50), NLRP1-mediated inflammasome activity", "method": "FIGS. 4A and 4B are charts showing inflammasome activity as determined by measuring secreted IL-1β concentrations in murine immortalized BMDMs pre-activated with lipopolysaccharide (LPS; 100 ng/mL) for 3 h. The macrophages were stimulated with either the NLRP3 activator, nigericin (3 μM) (FIG. 4A) or the NLRP1 agonist L18-MDP (100 μg/mL) (FIG. 4B) and treated or not with BT032 (3.9-350 μM). […] BT032 versus normalized responses (variable slope)."}, "[2]": {"test_system": "lesional skin from patients with psoriasis", "assay": "Psoriasis-related gene expression in psoriatic lesion biopsy specimens ex vivo", "assay_type": "cell-based, human", "details": "500 ng/mL, 12 hours", "method": "Human samples. Biopsy specimens of psoriatic lesions are obtained from about 10 patients after obtaining informed consent. Two adjacent biopsy specimens are taken from each patient. All specimens are cut at the upper dermis, and the epidermal side is used for the experiment. As a medium, HuMedia-KB2 (Kurabo) containing insulin, human epidermal growth factor, bovine pituitary extract, and gentamicin/amphotericin B is used, according to the manufacturer's protocol. One specimen is cultured with vehicle (DMSO), and the adjacent one was cultured with BT032 (500 ng/mL) for 12 hours.\nRNA isolation and the quantitative RT-PCR analysis. Total RNA is isolated using Trizol (Invitrogen, Carlsbad, CA) or RNeasy kits (Qiagen, PL Venlo, Netherlands) according to the manufacturer's protocol. Complementary DNA is reverse transcribed using a Prime Script RT reagent kit (Takara Bio, Shiga, Japan). The quantitative RT-PCR is performed by monitoring the synthesis of double-stranded DNA during the various PCR cycles with SYBR Green I (Roche, Basel, Switzerland) and the LightCycler real-time PCR apparatus (Roche), according to the manufacturer's instructions. All primers are obtained from Greiner Japan (Tokyo, Japan)."}, "NLRC4 inflammasome": {"target": "NLRC4 inflammasome (Mus musculus, UniProt Q3UP24)", "sequence (Q3UP24 whole entry)": "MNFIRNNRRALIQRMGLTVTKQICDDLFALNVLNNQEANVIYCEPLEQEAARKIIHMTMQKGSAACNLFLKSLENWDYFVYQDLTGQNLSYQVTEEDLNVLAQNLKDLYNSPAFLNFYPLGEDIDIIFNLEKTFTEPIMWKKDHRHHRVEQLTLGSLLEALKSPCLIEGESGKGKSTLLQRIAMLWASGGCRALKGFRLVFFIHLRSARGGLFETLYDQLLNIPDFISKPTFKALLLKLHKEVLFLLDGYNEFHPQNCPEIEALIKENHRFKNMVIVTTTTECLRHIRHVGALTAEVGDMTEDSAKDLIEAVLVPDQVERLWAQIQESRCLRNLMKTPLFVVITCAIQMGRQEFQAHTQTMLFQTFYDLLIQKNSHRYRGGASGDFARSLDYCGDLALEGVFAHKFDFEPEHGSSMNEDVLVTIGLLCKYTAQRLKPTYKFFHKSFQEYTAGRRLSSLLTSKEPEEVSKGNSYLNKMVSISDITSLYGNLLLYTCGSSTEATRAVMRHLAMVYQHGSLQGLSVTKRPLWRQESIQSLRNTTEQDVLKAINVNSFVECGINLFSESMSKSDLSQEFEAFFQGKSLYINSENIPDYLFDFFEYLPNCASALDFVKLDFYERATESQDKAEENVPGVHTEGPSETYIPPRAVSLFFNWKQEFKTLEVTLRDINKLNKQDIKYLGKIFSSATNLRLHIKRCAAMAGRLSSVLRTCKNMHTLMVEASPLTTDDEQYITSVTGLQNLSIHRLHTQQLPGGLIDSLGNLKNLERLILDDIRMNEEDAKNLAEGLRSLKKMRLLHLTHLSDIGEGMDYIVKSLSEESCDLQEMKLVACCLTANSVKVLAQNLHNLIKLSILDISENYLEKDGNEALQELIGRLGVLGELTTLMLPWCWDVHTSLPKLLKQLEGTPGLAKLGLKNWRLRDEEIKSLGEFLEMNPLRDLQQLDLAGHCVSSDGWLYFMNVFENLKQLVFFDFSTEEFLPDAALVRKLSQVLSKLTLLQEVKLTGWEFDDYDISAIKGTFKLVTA", "assay": "IL-1β secretion in macrophages challenged with Flagellin (FIG. 4C)", "assay_type": "cell-based, human", "details": "BT032 20, 100 μM; 6 h", "excerpt": "(§1) In vitro stimulation of human macrophages."}, "NLRP1 inflammasome [3]": {"test_system": "NLRP1 inflammasome", "assay": "IL-1β secretion in macrophages challenged with L18-MDP (FIG. 4C)", "assay_type": "cell-based, human", "details": "BT032 20, 100 μM; MCC950 5 μM; L18-MDP 100 μg/ml 16 h", "excerpt": "as §1"}, "[4]": {"test_system": "inflammasome activation by UVB", "assay": "Dermal UVB inflammatory challenge in healthy volunteers after intradermal dosing", "assay_type": "in vivo, human", "method": "This is a single-center, inflammatory challenge study in healthy volunteers, to evaluate inflammasome activation by UVB in healthy volunteers. Healthy volunteers will undergo a topical UVB challenge after intradermal dosing with BT032.\nUV-B Challenge+BT032 (n=9; 3 Placebo, 6 Active): • Screening: 1 hour admission • Study day (day −1 to 1): 24 hours admission (baseline assessments, challenge, and 2, 4 hr blister, skin assessments) • Follow-up visit 1 (day 2): 1 hour admission (24 hr blister) • End of study visit (+7 days): 1 hour admission\nInvestigational drug (BT032)+UVB challenge. As part of the screening assessments, the subject's Fitzpatrick skin photo type is determined (type I-VI). The subject is first exposed to 6 different doses of UV-B, to determine the Minimal Erythemic Dose (MED) expressed in J/cm^2, using the six different slots of the UV-B lamp. Twenty-four hours (±2 hours) after the exposure of the 6 doses, the erythemic response of the skin to UV-B is assessed by two observers. The MED is determined visually, by observing which dose produces the first clearly discernible erythema. On the treatment days, the subject's skin is exposed to two minimal erythema doses (2MED) of UVB.\nSubjects Groups. A total of 9 healthy volunteers will be enrolled. These subjects will undergo an UVB challenge after dosing with BT032. […]"}, "NLRP1 inflammasome [5]": {"test_system": "NLRP1 inflammasome", "assay": "IL-1β secretion in macrophages challenged with L18-MDP (FIG. 7)", "assay_type": "cell-based, human", "details": "20, 100, 350 μM, L18-MDP 100 μg/mL 16 hours, secreted IL-1β", "excerpt": "as §1"}, "Recombinant NLRP3": {"test_system": "Recombinant NLRP3", "assay": "Photo-affinity labelling of recombinant NLRP3, anti-PEG immunoblot (FIG. 9C)", "assay_type": "binding", "details": "inferred from photo-affinity probes ADS165, ADS167"}, "NLRP3 inflammasome": {"target": "NLRP3 inflammasome (Mus musculus, UniProt Q8R4B8)", "sequence (Q8R4B8 whole entry)": "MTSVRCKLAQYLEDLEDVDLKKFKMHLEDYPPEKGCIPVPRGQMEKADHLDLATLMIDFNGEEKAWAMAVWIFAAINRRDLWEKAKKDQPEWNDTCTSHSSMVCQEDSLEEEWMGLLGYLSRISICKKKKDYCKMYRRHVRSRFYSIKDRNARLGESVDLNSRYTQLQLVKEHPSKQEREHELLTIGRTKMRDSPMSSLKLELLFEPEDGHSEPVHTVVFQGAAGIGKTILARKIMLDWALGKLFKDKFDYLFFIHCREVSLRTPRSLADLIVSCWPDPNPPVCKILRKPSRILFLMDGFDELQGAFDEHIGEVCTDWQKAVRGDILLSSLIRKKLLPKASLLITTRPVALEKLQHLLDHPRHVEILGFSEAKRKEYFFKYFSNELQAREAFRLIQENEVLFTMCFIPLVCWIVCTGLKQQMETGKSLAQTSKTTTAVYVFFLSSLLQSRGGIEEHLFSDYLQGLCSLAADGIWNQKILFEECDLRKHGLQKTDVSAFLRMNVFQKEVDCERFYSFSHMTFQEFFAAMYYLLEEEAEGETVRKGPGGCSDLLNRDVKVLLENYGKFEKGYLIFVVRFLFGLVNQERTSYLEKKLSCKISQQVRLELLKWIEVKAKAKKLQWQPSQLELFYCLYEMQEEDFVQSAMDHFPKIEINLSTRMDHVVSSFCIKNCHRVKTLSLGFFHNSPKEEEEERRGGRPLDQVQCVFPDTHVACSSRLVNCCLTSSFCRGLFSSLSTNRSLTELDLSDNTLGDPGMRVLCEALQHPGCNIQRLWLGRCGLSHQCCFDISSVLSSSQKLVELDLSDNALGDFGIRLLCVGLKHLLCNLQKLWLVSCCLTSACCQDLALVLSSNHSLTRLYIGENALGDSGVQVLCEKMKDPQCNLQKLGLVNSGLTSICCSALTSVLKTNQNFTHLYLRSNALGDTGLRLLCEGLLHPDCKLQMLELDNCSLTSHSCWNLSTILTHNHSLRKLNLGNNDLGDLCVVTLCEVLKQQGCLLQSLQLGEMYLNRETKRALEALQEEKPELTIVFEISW", "assay": "IL-1β secretion in macrophages challenged with nigericin, MSU or silica (FIG. 4C)", "details": "BT032 20, 100 μM; MCC950 5 μM; secreted IL-1β"}}, "data": [{"smiles": "CCCN(CCC)S(=O)(=O)c1ccc(-c2ccc(CCCC(=O)O)cc2)cc1", "note": "[BT032, 4-(4′-(N,N-dipropylsulfamoyl)-[1,1′-biphenyl]-4-yl)butanoic acid]", "values": [{"measurement": "IC50", "setting": "[1]", "result": 30, "unit": "µM"}, {"measurement": "expression levels of IL1B, IL6, IL23A, IL17A versus control specimens", "setting": "[2]", "result": "lower expression levels"}, {"measurement": "NLRC4 (Flagellin)-mediated inflammasome activation", "setting": "NLRC4 inflammasome", "result": "no effect"}, {"measurement": "NLRP1 (L18-MDP)-induced inflammasome activation", "setting": "NLRP1 inflammasome [3]", "result": "dose-dependently inhibited"}, {"measurement": "levels of inflammasome-driven cytokines and/or inflammasome proteins versus non-treated controls", "setting": "[4]; IL-1β, IL-18, IL-6, TNF, NLRP3, ASC, NLRP1", "result": "reduced levels"}, {"measurement": "activation of inflammasomes versus non-treated controls", "setting": "[4]; intradermal dosing, UVB 2MED", "result": "reduction in the activation of inflammasomes"}, {"measurement": "NLRP1 (L18-MDP)-induced inflammasome activation", "setting": "NLRP1 inflammasome [5]", "result": "dose-dependently inhibited"}, {"measurement": "direct interaction with NLRP3", "setting": "Recombinant NLRP3", "result": "directly interacts proximal to the Walker B motif within the NACHT domain"}, {"measurement": "NLRP3 (Nigericin, MSU, Silica)-induced inflammasome activation", "setting": "NLRP3 inflammasome", "result": "dose-dependently inhibited"}]}]}
